We go through 29 molecules from patent US20250205344A1, “2,4-DIOXOTETRAHYDROPYRIMIDINYL DERATIVES AS DEGRONS IN PROTACS” (GLAXOSMITHKLINE INTELLECTUAL PROPERTY DEVELOPMENT LIMITED, priority 2022, published 2025).

Counter-ions that a name gives are not always drawn. Some results are limits rather than exact numbers.

The target in experiment [1] is T1, Full length Cereblon protein (6His tev Cereblon/6His tev DDB1ΔBPB) (Homo sapiens, UniProt Q96SW2).
T1 construct: Full length Cereblon protein (6His tev Cereblon/6His tev DDB1ΔBPB) was expressed and purified from E. coli; made in house; host or cells: E. coli
As to the kind of experiment: Cereblon Binding Assay (TR-FRET). Conditions: 5 nM protein, 50 nM Alexa647-lenalidomide ligand, read-out: Mean pIC50 (converted). Here is the method: Full length Cereblon protein (6His tev Cereblon/6His tev DDB1ΔBPB) was expressed and purified from E. coli to monitor compound binding. […] A Thermo Scientific Multidrop Combi was used to dispense 5 μL of 10 nM protein in assay buffer of 50 mM
HEPES, 150 mM NaCl, 5% glycerol, 1 mM DTT and 1 mM CHAPS, pH 7.4, in the presence of 100 nM fluorescent ligand (Final assay concentrations of 5 nM protein and 50 nM ligand). After equilibrating for 15 min in the dark at room temperature a 5 μL addition was made of 2 nM europium chelate labelled anti-6His antibody (Perkin Elmer, W1024, AD0111) in assay buffer (1 nM FAC). […] TR-FRET ratio data was normalised to high (DMSO) and low (reaction in the absence of protein) controls and pIC50 values determined for each of the compounds tested by fitting the fluorescence ratio data to a four parameter model:
[formula] • where ‘a’ is the minimum, ‘b’ is the maximum, ‘c’ is the pIC50 and ‘d’ is the Hill slope.
For orientation: In TR-FRET formats the signal depends on donor and acceptor labels being close together.

For a further experiment, the target named is T2, Androgen Receptor (Homo sapiens, UniProt P10275, T878A).
T2 construct: the AR gene was modified, using CRISPR/Cas9 editing, so the expressed AR protein included an 11 amino acid HiBiT tag; endogenous in cells; host or cells: clonal LnCaP-derived line, AR gene edited by CRISPR/Cas9
As to the kind of experiment: Androgen Receptor Degradation Assay (Nano-Glo HiBiT). The note with it: HiBiT-tagged AR in human LnCaP cells, 18 h; for Dmax: LNCaP, read-out: mean asymptote max. Format: cell-based. The method, boiled down:
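LnCaP cells with CRISPR-knocked-in N-terminal HiBiT-tagged AR (10,000/well) treated 18 h at 37 °C with PROTACs over 11 threefold concentrations; lytic HiBiT luminescence normalised to DMSO (0%) and cell-free (100%) controls. Relative DC50 = 4-parameter fit inflection; absolute DC50 = 50% degradation interpolation; Dmax = maximum observed degradation.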
On the technique in general: With HiBiT, luminescence reflects the tagged protein that the partner subunit can reach.

T2 sequence (P10275 whole entry T878A): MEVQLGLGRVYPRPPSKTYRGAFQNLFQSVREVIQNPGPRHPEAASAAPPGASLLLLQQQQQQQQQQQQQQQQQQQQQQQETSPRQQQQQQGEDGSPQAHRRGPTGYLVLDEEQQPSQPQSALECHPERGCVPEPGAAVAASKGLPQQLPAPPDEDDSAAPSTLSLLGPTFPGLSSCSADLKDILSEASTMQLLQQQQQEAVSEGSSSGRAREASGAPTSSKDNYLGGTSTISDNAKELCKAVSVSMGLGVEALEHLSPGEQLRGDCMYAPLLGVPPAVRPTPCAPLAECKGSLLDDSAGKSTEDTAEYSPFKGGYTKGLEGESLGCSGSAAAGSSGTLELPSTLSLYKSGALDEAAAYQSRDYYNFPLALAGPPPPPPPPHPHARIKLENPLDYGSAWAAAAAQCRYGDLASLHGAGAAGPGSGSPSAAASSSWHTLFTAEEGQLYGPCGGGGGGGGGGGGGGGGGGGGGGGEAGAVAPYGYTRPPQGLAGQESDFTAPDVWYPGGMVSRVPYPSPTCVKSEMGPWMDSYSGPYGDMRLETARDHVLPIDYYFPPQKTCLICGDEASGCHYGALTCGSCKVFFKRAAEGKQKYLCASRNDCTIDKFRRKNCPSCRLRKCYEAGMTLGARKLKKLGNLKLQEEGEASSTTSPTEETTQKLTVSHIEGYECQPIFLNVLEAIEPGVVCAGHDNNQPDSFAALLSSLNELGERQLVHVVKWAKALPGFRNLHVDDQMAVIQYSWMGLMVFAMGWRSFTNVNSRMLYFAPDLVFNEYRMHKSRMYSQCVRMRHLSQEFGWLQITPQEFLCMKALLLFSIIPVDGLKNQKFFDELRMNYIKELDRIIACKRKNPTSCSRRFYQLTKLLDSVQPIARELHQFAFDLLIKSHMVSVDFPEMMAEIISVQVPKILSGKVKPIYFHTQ
T2 sequence (Q96SW2 whole entry partner): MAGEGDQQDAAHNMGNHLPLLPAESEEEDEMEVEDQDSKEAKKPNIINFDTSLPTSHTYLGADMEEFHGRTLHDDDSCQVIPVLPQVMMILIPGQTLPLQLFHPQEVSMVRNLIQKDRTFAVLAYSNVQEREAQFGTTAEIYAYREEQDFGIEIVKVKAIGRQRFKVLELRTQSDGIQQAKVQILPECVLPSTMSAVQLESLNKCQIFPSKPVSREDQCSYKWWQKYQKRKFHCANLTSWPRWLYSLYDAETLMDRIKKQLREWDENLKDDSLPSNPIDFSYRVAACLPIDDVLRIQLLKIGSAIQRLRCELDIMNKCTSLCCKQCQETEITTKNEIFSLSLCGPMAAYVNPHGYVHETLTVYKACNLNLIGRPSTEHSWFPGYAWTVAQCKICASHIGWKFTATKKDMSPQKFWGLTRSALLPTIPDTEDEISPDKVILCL
T2 sequence (Q16531 whole entry partner): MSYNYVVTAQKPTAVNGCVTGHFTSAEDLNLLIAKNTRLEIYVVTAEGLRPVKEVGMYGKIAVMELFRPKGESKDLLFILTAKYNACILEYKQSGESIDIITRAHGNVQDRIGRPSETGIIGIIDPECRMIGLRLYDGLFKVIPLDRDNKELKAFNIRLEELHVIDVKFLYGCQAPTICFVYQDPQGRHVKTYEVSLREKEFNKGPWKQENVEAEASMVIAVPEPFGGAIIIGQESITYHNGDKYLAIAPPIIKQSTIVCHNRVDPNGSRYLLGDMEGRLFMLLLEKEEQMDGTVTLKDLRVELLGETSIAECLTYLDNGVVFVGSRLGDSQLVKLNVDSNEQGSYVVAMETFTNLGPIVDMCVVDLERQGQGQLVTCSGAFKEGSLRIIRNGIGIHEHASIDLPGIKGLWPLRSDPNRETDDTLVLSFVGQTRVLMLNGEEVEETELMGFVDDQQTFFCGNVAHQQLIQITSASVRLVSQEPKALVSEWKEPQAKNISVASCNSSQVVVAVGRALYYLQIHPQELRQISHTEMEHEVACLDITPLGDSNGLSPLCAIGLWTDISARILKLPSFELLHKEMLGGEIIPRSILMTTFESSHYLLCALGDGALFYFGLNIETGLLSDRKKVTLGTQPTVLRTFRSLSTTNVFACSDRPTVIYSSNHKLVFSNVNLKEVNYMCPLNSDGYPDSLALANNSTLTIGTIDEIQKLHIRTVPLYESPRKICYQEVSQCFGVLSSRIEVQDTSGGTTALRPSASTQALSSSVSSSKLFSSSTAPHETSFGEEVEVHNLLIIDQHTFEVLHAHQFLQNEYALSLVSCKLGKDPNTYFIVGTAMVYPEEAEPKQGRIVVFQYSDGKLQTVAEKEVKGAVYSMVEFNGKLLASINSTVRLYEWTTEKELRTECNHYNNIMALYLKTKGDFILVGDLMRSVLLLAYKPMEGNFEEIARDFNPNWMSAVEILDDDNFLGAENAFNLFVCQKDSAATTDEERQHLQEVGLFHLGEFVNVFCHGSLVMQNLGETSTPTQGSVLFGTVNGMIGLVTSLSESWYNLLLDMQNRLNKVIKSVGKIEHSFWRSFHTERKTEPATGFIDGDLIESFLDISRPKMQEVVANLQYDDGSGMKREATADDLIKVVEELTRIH
T1 sequence (Q96SW2 whole entry, stated change not applied): as the sequence (Q96SW2 whole entry partner) above

With `CCn1ccc2c(N3CCC(=O)NC3=O)cncc21` [ECB51, 1-(1-Ethyl-1H-pyrrolo[2,3-c]pyridin-4-yl)dihydropyrimidine-2,4(1H,3H)-dione], the IC50 in experiment [1] is 25.1 nM.

With `CC(C)n1ccc2c(N3CCC(=O)NC3=O)cc(C(=O)N(C)C3CCNCC3)cc21` [ECB15, 4-(2,4-Dioxotetrahydropyrimidin-1(2H)-yl)-1-isopropyl-N-methyl-N-(piperidin-4-yl)-1H-indole-6-carboxamide], the IC50 in experiment [1] was 25.1 nM.

As for `Cc1ccc(N2CCC(=O)NC2=O)c2ccn(C)c12` [ECB49, 1-(1,7-Dimethyl-1H-indol-4-yl)dihydropyrimidine-2,4(1H,3H)-dione], in experiment [1], the IC50 was 20 nM.

`O=C1CCN(c2cncc3c2cnn3C2CCNCC2)C(=O)N1` [ECB8, 1-(1-(Piperidin-4-yl)-1H-pyrazolo[3,4-c]pyridin-4-yl)dihydropyrimidine-2,4(1H,3H)-dione]: the IC50 in experiment [1] was 251 nM.

With `O=C1CCN(c2cc(C(F)(F)F)cc3c2ccn3C2CCNCC2)C(=O)N1` [ECB37, 1-(1-(piperidin-4-yl)-6-(trifluoromethyl)-1H-indol-4-yl)dihydropyrimidine-2,4(1H,3H)-dione], in experiment [1], the IC50 is 55 nM.

For the molecule `CCn1ccc2c(N3CCC(=O)NC3=O)cccc21` [ECB50, 1-(1-Ethyl-1H-indol-4-yl)dihydropyrimidine-2,4(1H,3H)-dione], the IC50 in experiment [1] is 24 nM.

Regarding `O=C1CCN(c2cc(C(F)(F)F)cc3c2cnn3C2CCNCC2)C(=O)N1` [ECB30, 1-(1-(piperidin-4-yl)-6-(trifluoromethyl)-1H-indazol-4-yl)dihydropyrimidine-2,4(1H,3H)-dione], the IC50 in experiment [1] is 245 nM.

Turning to `O=C1CCN(c2cc(Cl)cc3c2ccn3C2CCNCC2)C(=O)N1` [ECB9, 1-(6-Chloro-1-(piperidin-4-yl)-1H-indol-4-yl)dihydropyrimidine-2,4(1H,3H)-dione], in experiment [1], the IC50 is 7.94 nM.

Regarding `COCCn1ccc2c(N3CCC(=O)NC3=O)cccc21` [ECB48, 1-(1-(2-Methoxyethyl)-1H-indol-4-yl)dihydropyrimidine-2,4(1H,3H)-dione], in experiment [1], the IC50 was 35.5 nM.

Regarding `Cn1ncc2c(N3CCC(=O)NC3=O)cccc21` [ECB46, 1-(1-Methyl-1H-indazol-4-yl)dihydropyrimidine-2,4(1H,3H)-dione], in experiment [1], the IC50 is 309 nM.

Consider `Cn1ccc2c(N3CCC(=O)NC3=O)cccc21` [ECB45, 1-(1-Methyl-1H-indol-4-yl)dihydropyrimidine-2,4(1H,3H)-dione], for which the IC50 in experiment [1] was 100 nM.

For the molecule `O=C1CCN(c2ccnc3c2cnn3C2CCNCC2)C(=O)N1` [ECB19, 1-(1-(piperidin-4-yl)-1H-pyrazolo[3,4-b]pyridin-4-yl)dihydropyrimidine-2,4(1H,3H)-dione], the IC50 in experiment [1] was 380 nM.

Take `O=C1CCN(c2nccc3c2ccn3C2CCNCC2)C(=O)N1` [ECB25, 1-(1-(piperidin-4-yl)-1H-pyrrolo[3,2-c]pyridin-4-yl)dihydropyrimidine-2,4(1H,3H)-dione]: the IC50 in experiment [1] was 229 nM.

`O=C1CCN(c2ncnc3c2ccn3C2CCNCC2)C(=O)N1` [ECB17, 1-(7-(piperidin-4-yl)-7H-pyrrolo[2,3-d]pyrimidin-4-yl)dihydropyrimidine-2,4(1H,3H)-dione]: the IC50 in experiment [1] was 316 nM.

Regarding `O=C1CCN(c2cccc3c2cnn3C2CCNCC2)C(=O)N1` [ECB18, 1-(1-(Piperidin-4-yl)-1H-indazol-4-yl)dihydropyrimidine-2,4(1H,3H)-dione], the IC50 in experiment [1] is 10 nM.

Take `O=C1CCN(c2cncc3c2ccn3C2CCNCC2)C(=O)N1` [ECB6, 1-(1-(piperidin-4-yl)-1H-pyrrolo[2,3-c]pyridin-4-yl)dihydropyrimidine-2,4(1H,3H)-dione]: the IC50 in experiment [1] was 25.1 nM.

With `Cn1ccc2c(N3CCC(=O)NC3=O)nccc21` [ECB47, 1-(1-Methyl-1H-pyrrolo[3,2-c]pyridin-4-yl)dihydropyrimidine-2,4(1H,3H)-dione], in experiment [1], the IC50 was 575 nM.

In the case of `O=C1CCN(c2nccc3c2cnn3C2CCNCC2)C(=O)N1` [ECB7, 1-(1-(piperidin-4-yl)-1H-pyrazolo[4,3-c]pyridin-4-yl)dihydropyrimidine-2,4(1H,3H)-dione], in experiment [1], the IC50 is 79.4 nM.

For `O=C1CCN(c2cc(F)cc3c2cnn3C2CCNCC2)C(=O)N1` [ECB10, 1-(6-Fluoro-1-(piperidin-4-yl)-1H-indazol-4-yl)dihydropyrimidine-2,4(1H,3H)-dione], in experiment [1], the IC50 was 200 nM.

Consider `CC(C)n1ccc2c(N3CCC(=O)NC3=O)cc(C(=O)N3CCNCC3)cc21` [ECB11, 1-(1-isopropyl-6-(piperazine-1-carbonyl)-1H-indol-4-yl)dihydropyrimidine-2,4(1H,3H)-dione], for which the IC50 in experiment [1] was 2.51 nM.

On to `O=C1CCN(c2cc(F)cc3c2ccn3C2CCNCC2)C(=O)N1` [ECB44, 1-(6-Fluoro-1-(piperidin-4-yl)-1H-indol-4-yl)dihydropyrimidine-2,4(1H,3H)-dione], for which, in experiment [1], the IC50 was 33.1 nM.

Regarding `CC1(C)[C@H](NC(=O)c2ncc(N3CCC(CN4CCC(n5ncc6c(N7CCC(=O)NC7=O)cccc65)CC4)CC3)cn2)C(C)(C)[C@H]1Oc1cnc(C#N)c(Cl)c1` [EAR268, N-((1r,3r)-3-((5-Chloro-6-cyanopyridin-3-yl)oxy)-2,2,4,4-tetramethylcyclobutyl)-5-(4-((4-(4-(2,4-dioxotetrahydropyrimidin-1(2H)-yl)-1H-indazol-1-yl)piperidin-1-yl)methyl)piperidin-1-yl)pyrimidine-2-carboxamide], at Androgen Receptor, the “mean relative pDC50” value came to 5.54 and the Dmax was at least 50%.

For `C[C@@H]1CN(c2ccc(C#N)c(Cl)c2)[C@@H](C)CN1C(=O)c1ccc(OCCCCCN2CCC(n3ncc4c(N5CCC(=O)NC5=O)cncc43)CC2)nc1` [EAR164, 2-Chloro-4-((2S,5R)-4-(6-((5-(4-(4-(2,4-dioxotetrahydropyrimidin-1(2H)-yl)-1H-pyrazolo[3,4-c]pyridin-1-yl)piperidin-1-yl)pentyl)oxy)nicotinoyl)-2,5-dimethylpiperazin-1-yl)benzonitrile], the Dmax on Androgen Receptor was at least 50%.

For `N#Cc1ccc(O[C@H]2CC[C@H](NC(=O)c3ccc(N4CCC(CN5CCC(n6ccc7c(N8CCC(=O)NC8=O)c(F)ccc76)CC5)CC4)nn3)CC2)cc1Cl` [EAR170, N-((1r,4r)-4-(3-Chloro-4-cyanophenoxy)cyclohexyl)-6-(4-((4-(4-(2,4-dioxotetrahydropyrimidin-1(2H)-yl)-5-fluoro-1H-indol-1-yl)piperidin-1-yl)methyl)piperidin-1-yl)pyridazine-3-carboxamide, hydrochloride], at Androgen Receptor, the Dmax was at least 50%.

On to `CC1(CN2CCC(n3ccc4c(N5CCC(=O)NC5=O)cccc43)CC2)CCN(c2ccc(C(=O)N[C@H]3CC[C@H](Oc4ccc(C#N)c(Cl)c4)CC3)nn2)CC1` [EAR213, N-((1r,4r)-4-(3-Chloro-4-cyanophenoxy)cyclohexyl)-6-(4-((4-(4-(2,4-dioxotetrahydropyrimidin-1(2H)-yl)-1H-indol-1-yl)piperidin-1-yl)methyl)-4-methylpiperidin-1-yl)pyridazine-3-carboxamide], for which the Dmax on Androgen Receptor was at least 50%.

For the molecule `N#Cc1ccc(O[C@H]2CC[C@H](NC(=O)c3cnc(N4CCC(C(=O)N5CCC(n6ccc7c(N8CCC(=O)NC8=O)cccc76)CC5)CC4)nc3)CC2)cc1C(F)(F)F` [EAR68, N-((1r,4r)-4-(4-Cyano-3-(trifluoromethyl)phenoxy)cyclohexyl)-2-(4-(4-(4-(2,4-dioxotetrahydropyrimidin-1(2H)-yl)-1H-indol-1-yl)piperidine-1-carbonyl)piperidin-1-yl)pyrimidine-5-carboxamide], the Dmax at Androgen Receptor was at least 50%.

For `N#Cc1ccc(O[C@H]2CC[C@H](NC(=O)c3ccc(N4CCC[C@@H](CN5CCC(n6ncc7c(N8CCC(=O)NC8=O)cccc76)CC5)C4)nn3)CC2)cc1Cl` (single isomer, unassigned) [EAR137], the Dmax on Androgen Receptor was at least 50%.

For `N#Cc1ccc(O[C@H]2CC[C@H](NC(=O)c3ccc(N4CCC(N5CCC(Cn6ccc7c(N8CCC(=O)NC8=O)cccc76)CC5)CC4)nn3)CC2)cc1Cl` [EAR27, N-((1r,4r)-4-(3-Chloro-4-cyanophenoxy)cyclohexyl)-6-(4-((4-(2,4-dioxotetrahydropyrimidin-1(2H)-yl)-1H-indol-1-yl)methyl)-[1,4′-bipiperidin]-1′-yl)pyridazine-3-carboxamide hydrochloride], the Dmax on Androgen Receptor was at least 50%.

With `C[C@@H]1CN(c2ccc(C#N)c(Cl)c2)[C@@H](C)CN1C(=O)Nc1ccc(OCCCCN2CCC(n3ccc4c(N5CCC(=O)NC5=O)cncc43)CC2)nc1` [EAR111, (2R,5S)-4-(3-Chloro-4-cyanophenyl)-N-(6-(4-(4-(4-(2,4-dioxotetrahydropyrimidin-1(2H)-yl)-1H-pyrrolo[2,3-c]pyridin-1-yl)piperidin-1-yl)butoxy)pyridin-3-yl)-2,5-dimethylpiperazine-1-carboxamide], the Dmax at Androgen Receptor is at least 50%.
